Biological target: Albumin (Homo sapiens, UniProt P02768)
Assay: Binding affinity towards human serum albumin

Sequence of Albumin (P02768 whole entry): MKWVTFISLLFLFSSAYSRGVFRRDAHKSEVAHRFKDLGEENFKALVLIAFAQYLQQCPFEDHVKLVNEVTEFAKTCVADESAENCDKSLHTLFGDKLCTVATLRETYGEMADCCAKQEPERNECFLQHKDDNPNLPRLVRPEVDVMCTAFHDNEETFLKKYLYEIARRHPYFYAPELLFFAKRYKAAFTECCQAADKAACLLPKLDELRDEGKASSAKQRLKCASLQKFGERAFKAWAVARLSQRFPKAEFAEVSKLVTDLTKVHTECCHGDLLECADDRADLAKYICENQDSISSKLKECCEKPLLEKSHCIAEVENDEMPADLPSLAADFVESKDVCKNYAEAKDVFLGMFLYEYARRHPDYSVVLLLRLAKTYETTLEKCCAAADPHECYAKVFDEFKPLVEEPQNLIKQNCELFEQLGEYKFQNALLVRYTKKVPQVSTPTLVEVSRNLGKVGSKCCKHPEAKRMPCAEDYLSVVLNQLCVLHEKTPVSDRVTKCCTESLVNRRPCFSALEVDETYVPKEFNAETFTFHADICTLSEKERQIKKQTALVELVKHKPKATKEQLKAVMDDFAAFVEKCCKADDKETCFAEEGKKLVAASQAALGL

Row | SMILES | Association constant (Ka) [M⁻¹] | Ki [M⁻¹]
1 | NCc1cc(-c2ccc(C(=O)O)cc2)ccc1F | 1000 | –
2 | NS(=O)(=O)c1cc2c(cc1Cl)NCNS2(=O)=O [JFD00715] | 2290 | –
3 | O=C(O)c1cc(-c2ccccc2)ccc1O [2-Hydroxy-5-phenylbenzoic acid] | 100000 | –
4 | CS(=O)(=O)Nc1ccc([N+](=O)[O-])cc1Oc1ccccc1 | – | 15100
5 | COc1ccc2c(c1)CN(c1ccc(C(C)C(=O)O)cc1)C2=O (stereo not given) | 81200 | –
6 | O=C(c1ccccc1)c1ccc2n1CCC2C(=O)O (stereo not given) [Toradol] | 208000 | –
7 | CC(C)Cc1ccc([C@@H](C)C(=O)N[C@H](C)C(=O)O)cc1 | 39800 | –
8 | O=C(O)c1cccc(-c2ccc(Cl)cc2Cl)c1 | 23900 | –
9 | C[C@@H](C(=O)NS(C)(=O)=O)c1ccc(OS(=O)(=O)C(F)(F)F)cc1 [DF-2156A] | 831000 | –
10 | CC(Cc1ccc([C@@H](C)C(=O)NS(C)(=O)=O)cc1)C(=O)O (stereo not given in full) | 3890 | –
11 | CC(C)Cc1ccc([C@@H](C)C(=O)NCCOCCO)cc1 | 8120 | –
12 | Nc1cccc(-c2ccc(O)c(C(=O)O)c2)c1 | 2750 | –
13 | O=C(O)c1cccc(-c2ccccc2)c1 | 251000 | –
14 | C[C@@H](C(N)=O)c1ccc(OS(=O)(=O)C(F)(F)F)cc1 | 19000 | –
15 | Nc1ccc(-c2cccc(C(=O)O)c2)cc1 | 6160 | –
16 | O=C(O)c1cc(Cl)ccc1O [5-Chloro-2-hydroxy-benzoic acid] | 21300 | –
17 | O=C(O)c1cccc(-c2cc(Cl)cc(Cl)c2)c1 | 5750 | –
18 | Oc1ccc(-c2ccccc2)cc1 [4-Hydroxybiphenyl] | 9540 | –

Row | SMILES | Association constant (Ka) [M⁻¹] | Ki [M⁻¹]
19 | C[C@@H](C(=O)NCCN1CCCC1)c1ccc(OS(=O)(=O)C(F)(F)F)cc1 | 3890 | –
20 | O=C(O)c1ccc(-c2ccccc2)cc1 [Biphenyl-4-carboxylic acid] | 199000 | –
21 | C[C@@H](C(=O)NCCCN1CCCC1)c1ccc(OS(=O)(=O)C(F)(F)F)cc1 | 2690 | –
22 | O=C(O)c1cccc(-c2cc(C(F)(F)F)cc(C(F)(F)F)c2)c1 | 3090 | –
23 | Cc1ccc(S(=O)(=O)NC(=O)NN2CCCCCC2)cc1 [CHEBI:9613] | 53700 | –
24 | CC(C)c1ccc(O)c(C(=O)O)c1 | 26300 | –
25 | Cc1cc(CC(=O)O)n(C)c1C(=O)c1ccc(Cl)cc1 | 109000 | –
26 | CC1=C(CC(=O)O)c2cc(F)ccc2/C1=C\c1ccc([S+](C)[O-])cc1 (stereo not given) [Sulindac] | 26300 | –
27 | CCCNC(=O)NS(=O)(=O)c1ccc(Cl)cc1 [1-(4-chlorophenylsulfonyl)-3-propylurea] | 39800 | –
28 | CC(C)(C)c1ccc(O)c(C(=O)O)c1 | 20400 | –
29 | Cc1ccc(C(=O)c2ccc(CC(=O)O)n2C)cc1 [2-(1-methyl-5-(4-methylbenzoyl)-1H-pyrrol-2-yl)acetic acid] | 416000 | –
30 | CC(C)Cc1ccc([C@@H](C)C(=O)NS(C)(=O)=O)cc1 [(R)-2-(4-isobutylphenyl)-N-(methylsulfonyl)propanamide] | 1.65e+06 | –
31 | NCc1ccc(-c2ccc(C(=O)O)cc2)cc1 | 1000 | –
32 | CC(C)Cc1ccc([C@@H](C)C(=O)NCCCN(C)C)cc1 | 5010 | –
33 | CC(C)NCC(O)c1ccc(NS(C)(=O)=O)cc1 (racemic) [Sotalol,(-)] | 354 | –
34 | Nc1cccc(-c2cccc(C(=O)O)c2)c1 | 7760 | –
35 | CC(C(=O)O)c1ccc(-c2ccccc2)c(F)c1 (racemic) [2-(2-fluoro-[1,1'-biphenyl-4-yl])propanoic acid] | 331000 | –
